US8076302B2, “Pyrimidine nucleoside derivatives and salts thereof” (aRigen Pharmaceuticals, Inc., priority 2007, dated 2011)
Where a name gives a salt, the structure may show the parent alone. Read-outs that look alike come from different tables or passages of the source. Blank lines part the entries; values can stand above or below the compound they belong to.

Columns and labels:
VZV = assay: In vitro antiviral test, 50% plaque formation inhibition, anti-VZV activity; assay type: cell-based, varicella-zoster virus (VZV)
Method: (§1) The compounds of the present invention were measured for their in vitro antiviral activity (anti-HSV-1 activity, anti-VZV activity) by using human fetal lung-derived cells in an assay for 50% plaque formation inhibition (Japanese Journal of Chemotherapy, Vol. 38, No. 3, 256-261, 1990).

HSV-1 = assay: In vitro antiviral test, 50% plaque formation inhibition, anti-HSV-1 activity; assay type: cell-based, herpes simplex virus type 1 (HSV-1)
Method: as §1

HSV-1 infection in mice = conditions: compared with acyclovir; Non-patent Document 1; cited from earlier work
uninfected cells = conditions: cited from earlier work
[1] = system: HSV-1 infection in mouse skin; assay: In vivo antiviral test, HSV-1 mouse skin infection model (creams); conditions: HSV-1-infected mice, cream; for Incidence rate: affected/total animals
Method: Creams were prepared for the compounds of the present invention according to Formulation Example 2 and tested for their therapeutic effect on HSV-1 infection in mouse skin. Moreover, skin symptoms in the HSV-1-infected mice were scored (Antiviral Research, 17, 133-143, 1992), and the time course of changes in their average lesion scores is shown in FIG. 1.
According to the ratio indicated above, creams were prepared in a routine manner and provided for Pharmacological Test Example 2.

[2] = system: herpes simplex virus type 1 (HSV-1) and varicella-zoster virus (VZV); conditions: Patent Document 1; cited from earlier work
[3] = Human alphaherpesvirus 3, 50% plaque formation inhibition, human fetal lung-derived cells, read-out: Anti-VZV activity (ED50)
[4] = Human alphaherpesvirus 1, effective concentration required to reduce the number of plaques to 50%, human fetal lung-derived cells, read-out: Anti-HSV-1 activity (ED50)
[5] = Human alphaherpesvirus 3, read-out: Anti-VZV activity (ED50)
[6] = Human alphaherpesvirus 1, read-out: Anti-HSV-1 activity (ED50)

EC50 (VZV; [3]): 21 nM | EC50 (HSV-1; [4]): 130 nM
Compound: O=C(OCC1OC(n2cc(/C=C/Cl)c(=O)[nH]c2=O)C(O)C1O)c1ccncc1 [Compound 4, (E)-5-(2-chlorovinyl)-1-[5′-O-(pyridine-4-carboxyl)-β-D-arabinofuranosyl]uracil hydrochloride]

Compound: O=c1[nH]c(=O)n([C@@H]2O[C@H](CO)[C@@H](O)[C@@H]2O)cc1/C=C/Br [Sorivudine, 1-β-D-arabinofuranosyl-(E)-5-(2-bromovinyl)uracil]
Usefulness as external formulation for HSV-1 infection in mice (HSV-1 infection in mice): as useful as acyclovir | Cytotoxicity (uninfected cells): extremely low

EC50 (VZV; [3]): 8.9 nM | EC50 (HSV-1; [4]): 75 nM
Compound: O=c1[nH]c(=O)n([C@@H]2O[C@H](CO)[C@@H](O)[C@@H]2O)cc1/C=C/Cl [CVAU, 1-β-D-arabinofuranosyl-(E)-5-(2-chlorovinyl)uracil, reference compound]
Incidence rate [1]: 6/8 | Survival rate ([1]; survivors/total animals, chi-square test vs control): 7/8 P < 0.01 | Activity compared with sorivudine [2]: the same activity as sorivudine

Compound: CC(C)C(N)C(=O)OCC1OC(n2cc(/C=C/Cl)c(=O)[nH]c2=O)C(O)C1O [Compound 2, 1-[5′-0-(L-valine)-β-D-arabinofuranosyl]-(E)-5-(2-chlorovinyl)uracil hydrochloride]
EC50 (VZV; [5]): 19 nM | EC50 (HSV-1; [6]): 120 nM | Incidence rate [1]: 8/8

EC50 (VZV; [3]): 47 nM | EC50 (HSV-1; [4]): 560 nM
Compound: CN1CCC(C(=O)OCC2OC(n3cc(/C=C/Cl)c(=O)[nH]c3=O)C(O)C2O)CC1 [Compound 5, (E)-5-(2-chlorovinyl)-1-[5′-O—(N-methylpiperidine-4-carboxyl)-β-D-arabinofuranosyl]uracil hydrochloride]

Compound: O=C(OCC1OC(n2cc(/C=C/Cl)c(=O)[nH]c2=O)C(O)C1O)C1CCNCC1 [Compound 1, (E)-5-(2-chlorovinyl)-1-[5′-O-(piperidine-4-carboxyl)-β-D-arabinofuranosyl]uracil hydrochloride]
EC50 (VZV; [5]): 46 nM | EC50 (HSV-1; [6]): 400 nM | Incidence rate ([1]; hydrochloride): 4/8

EC50 (VZV; [3]): 52 nM | EC50 (HSV-1; [4]): 490 nM
Compound: O=C(OCC1OC(n2cc(/C=C/Cl)c(=O)[nH]c2=O)C(O)C1O)c1cccnc1 [Compound 3, (E)-5-(2-chlorovinyl)-1-[5′-O-(pyridine-3-carboxyl)-β-D-arabinofuranosyl]uracil hydrochloride]
